Measurements from patent US5690954A, “Enhanced uptake drug delivery system having microspheres containing an active drug and a bioavailability improving material” (priority 1987, dated 1997).
Where two headings read alike, the source gives them in different places.

Legend:
[1] = Maximum loading capacity of albumin microspheres; format: physicochemical; settings: emulsion technique
Description: The active agent can be incorporated into the microspheres during their formulation or sorbed into/onto the system after preparation.
Albumin microspheres were prepared as described above by an emulsion technique with a stirring speed of 900 rpm and the model drug dissolved in the albumin solution at various concentrations.
Concentrations of 0.5, 2, 4 and 5% w/v Rose bengal were used. […] Due to the solution characteristics of sodium cromoglycate in water the highest concentration that could be used was […]. Thus, microspheres were manufactured from solutions containing 0.5, 1, 2 and 4% w/v sodium cromoglycate.

[2] = hGH nasal, in situ rat model (ELISA); format: in vivo, male Wistar rats
Description: For all experiments biosynthetic hGH was used.
As before the experiments were performed using the rat in situ model described by Hirai and modified by Fisher.
Non-fasted male Wistar rats of about 200 g were divided into groups of 4 and anaesthetized using an i.p. injection of 0.35 ml of pentobarbitone (60 mg/ml).
Three different hGH preparations were administered to the rats namely a 10 mg/ml solution of hGH in potassium phosphate buffer (1/75M), pH=7.2, as before with the addition of 0.05% LPC and as before with the addition of 0.5% LPC.
20 μl (1 mg/kg) of either of the three preparations were administered intranasally by means of a plastic tubing.
All experiments were performed in replicate. Blood samples, 20 drops were collected and kept on ice at times 0, 5, 10, 20, 30, 40, 50, 60, 90, 120, 180, 240 and 300 min after the application. The plasma was separated and stored at -20° C. until analysis.

[3] = Bioavailability enhancement by microspheres plus bioavailability increasing material (general statement)
Text: The material selected for these studies has been lysophosphatidylcholine (described above).

[4] = in vivo
[5] = Zn-human insulin nasal, in situ rat model, plasma glucose; format: in vivo, male Wistar rats
Description: The Hirai's in situ model (as modified by Fisher) was used to study the nasal absorption of insulin using non-diabetic male Wistar Rats of 150 g fasted overnight. The rats were anaesthetized with an i.p. injection of 0.25 ml of Pentobarbitone (60 mg/ml).
A 250 IV/ml solution of Zinc (Zn)-human insulin was prepared in buffer (1/75M Na2 HPO4)) of pH 7.3. In some experiments 0.2% of LPC or for comparison 1% Glycodeoxycholate (GDC) were added to the preparation as absorption enhancers. The experiments were performed in replicate (n=4). 10 μl was administered into the nasal cavity equivalent to 16.67 IV/kg (2.5 IV/rat). Blood samples (0.2 ml) were collected into 5 ml fluoride oxalate tubes at 10, 6 and 2 min pre-administration and at 5, 10, 20, 40, 60, 90, 120, 180, 240 and 300 min post-administration. The blood was replaced by saline administered through the jugular vein.

[6] = Zn-/Na-insulin nasal in rabbits, plasma glucose; format: in vivo, New Zealand White rabbits; settings: rabbit; for shape of plasma glucose curves versus s.c.: intranasal microspheres and LPC 2.5 IU/kg versus 0.6 IU/kg s.c.; for plasma glucose levels: intranasal microspheres and LPC, 2.5 IU/kg; for plasma glucose levels versus simple insulin solution: intranasal solution with 0.2% LPC, about 2.3 IU/kg
Description: Preparations of Zn-insulin (mainly hexamer form) or Na-insulin (mainly monomer/dimer forms) were administered nasally to rabbits either as free insulin or as a microsphere delivery system with lysophosphatidylcholine (LPC) as a bioavailability increasing material. The experiments were performed in replicate (n=4).
Non-fasted New Zealand White female rabbits of average weight 3.5 kg were used in this study.
A 40 IU/ml Zn- or Na-human insulin solution was prepared in buffer (1/75M Na2 HPO4) of pH 7.3-7.4. In some experiments 0.2% LPC was added.
A total of 200 μl of the solution (100 μl in each nostril) was administered intranasally equivalent to about 2.3 IU/kg using an Eppendorf pipette.
The rabbits were dosed s.c. with insulin at 0.8 IU/kg or 0.6 IU/kg from a 14 IU/ml or 10 IU/ml aqueous solution, respectively.
The dose of starch microspheres and insulin was fixed at 2.5 mg/kg and 2.5 IU/kg, respectively. The dose of LPC was 0.2 mg/kg. The average weight of the rabbits was 3.5 kg.
25 mg of microspheres were placed in a small glass vial and 250 μl of a 100 IU/ml insulin solution (Na- or Zn-insulin) was added followed by the 2 mg LPC and 250 μl of distilled water. The microspheres were then allowed to stand for 2 h at room temperature in contact with the insulin solution before freeze drying.
Approximately 15 mg of the freeze dried powder from each individual vial was filled into the applicator tubing, and this was stored in a dessicator until use.
Each rabbit was held on its back during, and for 10 second after, the application to ensure the delivery of the powdered formulation. Blood samples of 200 μl and 2 ml for glucose and insulin determination, respectively, were collected from the marginal ear vein at 10 and 5 min prior to the administration and at 5, 15, 30, 45, 60, 90, 120 and 180 min post-administration. […] The blood samples for glucose analysis were kept on crushed ice awaiting immediate analysis.

[7] = cited from earlier work
[8] = nasal, cited from earlier work
[9] = intranasal, simple solution, versus intravenous; cited from earlier work
[10] = set-up: species or system Male Wistar rats; settings: rat, in vivo
Description: The in situ rat model of Hirai et al (14) was used as modified by Fisher et al (15). Male Wistar rats of about 200 g were anaesthetized by intraperitoneal injection of 60 mg/kg of Pentobarbitone (Sagatal, 60 mg/ml). The rats were tracheotomized, the oesophagus sealed and the carotid artery cannulated.
A volume of the gentamicin solution containing 0.5% of the drug with and without added lysophosphatidylcholine (LPC) (0.2%) was instilled into the nasal cavity. Blood samples were withdrawn from the carotid artery at 0, 5, 10, 15, 30, 45, 60 and 120 min after drug administration. The gentamicin level was determined by the EMIT method (16).

[11] = sheep, in vivo, 5 mg/kg
Description: Cross-bred (Suffolk and Texel) sheep were divided into groups of 3 and 2. The mean weight of the sheep was about 40 kg.
The animals were not fasted prior to the administration of gentamicin. […] The catheter was removed upon completion of the study. […] The sedation lasted about 3 minutes. The animals that received gentamicin by the IV route were also sedated.
The first group of sheep (n=2) was given 0.25 ml of gentamicin solution (386 mg/ml) (5.0 mg/kg) into each nostril. The second group (n=3) received 0.25 ml of gentamicin solution (386 mg/ml) (5.0 mg/kg) containing 2 mg/ml LPC into each nostril. The third group (n=3) received 5.0 mg/kg gentamicin and 0.2 mg/kg LPC in combination with starch microspheres (1.9 mg gentamicin-/mg starch microspheres). The last group of sheep (n=3) was given 2 mg/kg gentamicin administered intravenously as a solution (40 mg/ml) through the jugular vein. Blood samples (2 ml) were collected through the jugular vein at 0, 8, 16, 24, 32, 45, 60, 90, 120, 180 and 240 min after drug administration. The serum was separated by centrifugation and the samples stored at -20° C. awaiting analysis. No heparin was added to any of the samples. The gentamicin level was determined by the EMIT technique (16).

[12] = cited from earlier work; remark: listed apart in the source
[13] = intranasal solution without enhancer, 1 mg/kg
[14] = microspheres with lysophosphatidylcholine

O=C([O-])c1c(Cl)c(Cl)c(Cl)c(Cl)c1-c1c2cc(I)c(=O)c(I)c-2oc2c(I)c([O-])c(I)cc12.[Na+].[Na+] [Rose bengal]
maximum loading capacity [1]: 170 μg per mg albumin microspheres

hGH: biosynthetic hGH
nasal absorption [2, 13]: not absorbed at any significant degree | plasma level peak [2, 13]: about 3.5 ng/ml | effect of 0.05% LPC on absorption ([2]; intranasal with 0.05% LPC): no effect | AUC ([2]; intranasal with 0.5% LPC): very significant increase | plasma level peak ([2]; intranasal with 0.5% LPC, 1 mg/kg): about 57 ng/ml | enhancement concept, outcome [3, 14]: successful | bioavailability versus subcutaneous injection [4]: about 20% | plasma level with microspheres and LPC [4]: increased considerably | shape of profile ([4]; sc): flatter profile

Zn-insulin: Zn-insulin (mainly hexamer form)
lowering of plasma glucose level ([5]; intranasal simple solution): not effective | plasma glucose level ([5]; intranasal, with 0.2% LPC): fast and significant drop | shape of plasma glucose curves versus s.c. [6]: surprisingly similar to the ones obtained for the s.c. administration | plasma glucose levels [6]: even more drastic decreases | plasma glucose levels versus simple insulin solution [6]: lowered significantly

O=C(O)c1cc(=O)c2c(OCC(O)COc3cccc4oc(C(=O)O)cc(=O)c34)cccc2o1 [sodium cromoglycate]
maximum loading capacity [1]: 137 μg per mg albumin microspheres

NC(=O)CC[C@@H]1NC(=O)[C@H](Cc2ccccc2)NC(=O)[C@H](Cc2ccc(O)cc2)NC(=O)CCSSC[C@@H](C(=O)N2CCC[C@H]2C(=O)N[C@H](CCCN=C(N)N)C(=O)NCC(N)=O)NC(=O)[C@H](CC(N)=O)NC1=O [DDVAP, reference compound]
enhancement concept, outcome ([3]; in vivo): successful

CC(=O)[C@H]1CC[C@H]2[C@@H]3CCC4=CC(=O)CC[C@]4(C)[C@H]3CC[C@]12C [progesterone]
time of peak concentration ([7]; nasal route): approximately 6 minutes | bioavailability, oral ([7]; oral route, compared to IV administration): ~1.2% | effectiveness, oral ([7]; oral route): largely ineffective

salmon calcitonin
plasma calcitonin increase ([8]; in combination with a surfactant): significant increase | AUC increase ([8]; with surfactant enhancer): 10 fold | plasma calcitonin ([8]; without enhancer): only trace amounts

CC(C)NC[C@H](O)COc1cccc2ccccc12 (racemic) [propanolol]
plasma levels [9]: identical to intravenous administration

Na-insulin: Na-insulin (mainly monomer/dimer forms)
shape of plasma glucose curves versus s.c. [6]: surprisingly similar to the ones obtained for the s.c. administration | plasma glucose levels [6]: even more drastic decreases | plasma glucose levels versus simple insulin solution [6]: lowered significantly

gentamicin
bioavailability [10]: poor bioavailability | peak level relative to solution alone [10]: five fold greater | bioavailability versus IV dose [11]: 57.3% | peak blood level [11]: 0.4 µg/mL | enhancement concept, outcome ([3]; in vivo): successful | nasal absorption ([12]; into the nose, without enhancer): poorly absorbed | biological availability with bile salts ([12]; nasal, added bile salts): enhanced

calcitonin: calcitonin [reference compound]
enhancement concept, outcome [3, 14]: successful

B1: CCK: CCK (peptide, UniProt P06307 21-115, looked up)
Cholecystokinin: QPVPPADPAGSGLQRAEEAPRRQLRVSQRTDGESRAHLGALLARYIQQARKAPSGRMSIVKNLQNLDPSHRISDRDYMGWMDFGRRSAEEYEYPS
enhancement concept, outcome [3, 14]: successful
